According to BindingDB's records for doi:10.7270/Q23B5XKP (Vanderbilt Screening Center for GPCRs, Ion Channels and …, 2009):

Biological target: T1, Solute carrier family 12 member 5 (Homo sapiens, UniProt Q9H2X9)
T1 sequence (Q9H2X9 whole entry): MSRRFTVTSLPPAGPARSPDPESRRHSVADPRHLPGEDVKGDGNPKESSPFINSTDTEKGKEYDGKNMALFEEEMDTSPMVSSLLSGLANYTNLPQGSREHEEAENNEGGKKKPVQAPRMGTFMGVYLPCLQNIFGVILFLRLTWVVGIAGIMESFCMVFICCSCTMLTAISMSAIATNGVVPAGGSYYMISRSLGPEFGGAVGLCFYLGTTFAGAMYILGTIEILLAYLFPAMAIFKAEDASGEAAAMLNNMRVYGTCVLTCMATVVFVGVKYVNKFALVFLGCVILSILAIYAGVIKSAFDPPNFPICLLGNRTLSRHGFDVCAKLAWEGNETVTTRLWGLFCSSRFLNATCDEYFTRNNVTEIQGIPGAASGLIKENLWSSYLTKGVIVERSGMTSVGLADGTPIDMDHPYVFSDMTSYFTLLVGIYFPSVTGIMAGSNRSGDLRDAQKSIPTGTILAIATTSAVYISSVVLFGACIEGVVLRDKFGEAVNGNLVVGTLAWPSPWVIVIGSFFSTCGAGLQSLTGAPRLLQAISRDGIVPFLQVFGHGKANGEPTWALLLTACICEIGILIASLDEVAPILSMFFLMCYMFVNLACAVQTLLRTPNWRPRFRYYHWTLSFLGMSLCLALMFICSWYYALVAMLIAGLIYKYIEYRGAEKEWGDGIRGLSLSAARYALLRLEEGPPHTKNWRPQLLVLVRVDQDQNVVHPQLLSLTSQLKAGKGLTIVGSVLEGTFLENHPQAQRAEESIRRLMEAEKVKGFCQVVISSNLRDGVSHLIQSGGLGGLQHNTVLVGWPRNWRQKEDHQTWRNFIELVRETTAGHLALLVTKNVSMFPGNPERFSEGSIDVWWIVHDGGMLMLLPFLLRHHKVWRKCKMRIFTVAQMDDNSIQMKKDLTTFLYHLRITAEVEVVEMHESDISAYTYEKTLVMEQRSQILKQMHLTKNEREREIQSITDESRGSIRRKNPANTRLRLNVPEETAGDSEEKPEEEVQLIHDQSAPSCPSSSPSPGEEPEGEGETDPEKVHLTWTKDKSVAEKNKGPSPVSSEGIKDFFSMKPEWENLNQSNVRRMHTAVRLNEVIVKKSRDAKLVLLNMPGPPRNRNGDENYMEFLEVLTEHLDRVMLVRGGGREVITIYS
Experiment: modulation of KCC2 K-Cl transport – cell-based, assay 2, dose response (AID 1723)

[1] = inactive by the depositor's call

| SMILES | EC50 | EC50 [1] |
| --- | --- | --- |
| CCOc1cccc(C(=O)NC(=S)Nc2cccc(C)c2)c1 [3-ethoxy-N-(m-tolylthiocarbamoyl)benzamide] | 1.58 µM | – |
| O=C1OC(c2ccc(O)cc2)(c2ccc(O)cc2)c2ccccc21 | 11.8 µM | – |
| CCOc1ccc2nc(Sc3cc(O)n(-c4cccc(OC)c4)c3O)sc2c1 [3-(6-Ethoxy-benzothiazol-2-ylsulfanyl)-1-(3-methoxy-phenyl)-pyrrolidine-2,5-dione] | 7.89 µM | – |
| S=C(NCCc1ccccc1)NN=Cc1cccc(Cl)c1Cl [1-[(2,3-dichlorobenzylidene)amino]-3-phenethyl-thiourea] | 10.1 µM | – |
| Oc1ccccc1CN=Nc1nc2ccccc2o1 [(6E)-6-[(1,3-benzoxazol-2-ylhydrazo)methylidene]-1-cyclohexa-2,4-dienone] | 31.1 µM | – |
| NC(=S)NN=C1C(=O)N(Cc2ccc(F)cc2)c2ccccc21 [1-[(Z)-[1-[(4-fluorophenyl)methyl]-2-oxidanylidene-indol-3-ylidene]amino]thiourea] | 7.58 µM | – |
| COc1ccccc1N1CCN(C(=S)NC(=O)/C=C/c2ccccc2)CC1 [(E)-N-[4-(2-Methoxy-phenyl)-piperazine-1-carbothioyl]-3-phenyl-acrylamide] | – | 1.34 µM |
| Cc1[nH]n2c(=O)cc(C(C)C)nc2c1-c1ccccc1 | 21 µM | – |
| COC(=O)[C@@H](NC(=O)O[C@@H]1C(=O)c2ccc(OC)cc2O[C@H]1c1cccc(C(F)(F)F)c1)C(C)C [(2S)-2-[[(2S,3S)-4-keto-7-methoxy-2-[3-(trifluoromethyl)phenyl]chroman-3-yl]oxycarbonylamino]-3-methyl-butyric acid methyl ester] | 0.515 µM | – |
| Fc1cccc(F)c1C=NNC(=S)Nc1cccnc1 [1-[(2,6-difluorobenzylidene)amino]-3-(3-pyridyl)thiourea] | 6.66 µM | – |
| S=c1nc(-c2ccc3c(c2)CCO3)cc[nH]1 | 6.1 µM | – |
| Cc1ccc(-c2n[nH]c(=S)n2NC=CCc2ccccc2[N+](=O)[O-])cc1 | – | 0.807 µM |
| N=C1SCC(=O)N1c1ncc(Cc2cccc(Cl)c2)s1 [2-azanylidene-3-[5-[(3-chlorophenyl)methyl]-1,3-thiazol-2-yl]-1,3-thiazolidin-4-one] | 2.86 µM | – |
| O=[N+]([O-])c1ccc(-c2cn(-c3ccccc3F)c(=S)[nH]2)cc1 | 0.616 µM | – |
| COc1ccc(Cn2c(=S)[nH]c3ccccc32)cc1 [1-(4-methoxybenzyl)-1H-benzimidazole-2-thiol] | 0.401 µM | – |
| O=C(NC(=S)Nc1nc(-c2cccc([N+](=O)[O-])c2)cs1)c1ccccc1Cl [2-chloranyl-N-[[4-(3-nitrophenyl)-1,3-thiazol-2-yl]carbamothioyl]benzamide] | 139 µM | – |

Next, values leading:

| EC50 | EC50 [1] | SMILES |
| --- | --- | --- |
| 726 µM | – | CC(=NNC(=O)c1ccc2c(c1)OCO2)c1ccc(Br)s1 [MLS000666595] |
| 1.19 µM | – | CC(=O)c1cccc(NC(=S)NC(=O)c2ccc(C)cc2)c1 [MLS000687464] |
| – | 0.124 µM | O=C(NC(=S)Nc1cccc2cccnc12)c1cccs1 [MLS000688132] |
| 11.2 µM | – | Cc1cccc(N2CCN(C(=O)CCCn3c(=S)[nH]c4cc5c(cc4c3=O)OCO5)CC2)c1C [MLS000095366] |
| 7.99 µM | – | COc1cc(NC(=S)NC(=O)c2ccco2)ccc1NC(=O)C(C)C [MLS000672338] |
| 62.4 µM | – | O=C(C=Cc1ccccc1)CC(=O)c1ccccc1O [MLS000627068] |
| 15.6 µM | – | CC(C)c1ccc(OCC(=O)NNC(=O)c2cnccn2)cc1 [MLS000332605] |
| 13.3 µM | – | O=c1c2ccccc2[nH]c(=S)n1CCN1CCC(=C(c2ccc(F)cc2)c2ccc(F)cc2)CC1 [SMR000058550] |
